Values joined by “and” are separate entries in the source; they are usually repeats but may differ in a detail not shown here. Equal entries are not always repeated.
Legend:
Penicillium italicum = assay: Treatment of oranges: wounded, inoculated with Penicillium italicum, wound treated with antifungal composition (Examples 7-9); format: in vivo; settings: for Observed antifungal activity O (%) / Number of moulded oranges/total number of 8 oranges: oranges, 20° C.
Protocol: The expected antifungal activity (E in %) of the combined antifungal composition comprising both active ingredients was calculated according to the Colby equation (Colby, 1967): E=X+Y−[(X·Y)/100] wherein X and Y are the observed antifungal activities (in %) of the individual active ingredients X and Y, respectively.
Eight fresh, organic oranges were used per treatment. Each orange was soaked in a 180 ppm hypochlorite solution for 10 minutes, then rinsed thoroughly with fresh tap water and dried. The peel of each disinfected orange was wounded once using a cork borer according to the method described by de Lapeyre de Bellaire and Dubois (1987). Subsequently, each wound was inoculated with 10 μl of a Penicillium italicum suspension containing 5×10^5 of spores/ml. After incubation for 3 hours at 20° C., each wound and the orange peel area of 1 cm around the wound was treated with in total […] of a freshly prepared aqueous antifungal composition comprising either 500 ppm natamycin (DSM Food Specialties, Delft, The Netherlands), 300 ppm fludioxonil or both. Each antifungal composition also comprised 3.2% (w/w) beeswax, 0.8% (w/w) glycerol, 0.7% (w/w) polyoxyethylene sorbitan monostearate (Tween 60), 0.1% (w/w) polyoxyethylene sorbitan monooleate (Tween 80), 0.05% (w/w) methylhydroxyethyl-cellulose (MHEC), 0.03% (w/w) anti-foaming agent, 0.02% (w/w) xanthan gum, 0.02% (w/w) citric acid, 0.01% (w/w) lactic acid and 0.01% potassium sorbate. A composition without natamycin or fludioxonil was used as control.
The treated oranges were incubated in a closed box in the dark at 20° C. and assessed on mould growth during a 27-day incubation period.
(§1) The experiment was conducted as described in Example 7, except for the fact that each wounded and inoculated orange was treated with 150 μl of a freshly prepared aqueous antifungal composition comprising either 250 ppm natamycin (DSM Food Specialties, Delft, The Netherlands), 100 ppm fludioxonil or both. During incubation, the treated oranges were assessed on mould growth according to the two methods described in Example 5.
as §1, with “500” for “250”, “400” for “100”, “fenpiclonil” for “fludioxonil”, “a 23-day incubation period,” for “incubation,”

Botrytis cinerea = assay: Treatment of sweet peppers: wounded, inoculated with Botrytis cinerea, wound treated with antifungal composition (Example 10); format: in vivo; settings: 400 ppm natamycin, 600 ppm fenpiclonil or both, 20° C.
Protocol: Ten fresh, organic sweet peppers were used per treatment. The peel of each sweet pepper was wounded once using a cork borer according to the method described by de Lapeyre de Bellaire and Dubois (1987). Subsequently, each wound was inoculated with 10 μl of a Botrytis cinerea suspension containing 1×10^5 of spores/ml. After incubation for 3 hours at 20° C., each wound and the skin area of 0.5 cm around the wound was treated with in total 75 μl of a freshly prepared aqueous antifungal composition comprising either 400 ppm natamycin (DSM Food Specialties, Delft, The Netherlands), 600 ppm fenpiclonil or both. Each antifungal composition also comprised 3.2% (w/w) beeswax, 0.8% (w/w) glycerol, 0.7% (w/w) polyoxyethylene sorbitan monostearate (Tween 60), 0.2% (w/w) polyoxyethylene sorbitan monooleate (Tween 80), 0.05% (w/w) methylhydroxyethyl-cellulose (MHEC), 0.03% (w/w) anti-foaming agent, 0.02% (w/w) xanthan gum, 0.02% (w/w) citric acid, 0.01% (w/w) lactic acid and 0.01% potassium sorbate. A composition without natamycin or fenpiclonil was used as control.
The treated sweet peppers were incubated in a closed box in the dark at 20° C. and assessed on mould growth during incubation. The antifungal activity (in %) of the individual and combined active ingredients was determined by calculating the reduction in mould growth observed on the sweet peppers treated with the antifungal composition in comparison to the mould growth on the sweet peppers treated with the control composition according to the Colby method (Colby, 1967) as described in Example 5.

[1] = 250 ppm natamycin, 100 ppm fludioxonil or both, 26-27 days
[2] = 250 ppm natamycin, 100 ppm fludioxonil or both, 19 days
[3] = 250 ppm natamycin, 100 ppm fludioxonil or both, 20 days
[4] = 250 ppm natamycin, 100 ppm fludioxonil or both, 21 days
[5] = 250 ppm natamycin, 100 ppm fludioxonil or both, 22 days
[6] = 250 ppm natamycin, 100 ppm fludioxonil or both, 23 days
[7] = 250 ppm natamycin, 100 ppm fludioxonil or both, 25 days
[8] = 250 ppm natamycin, 100 ppm fludioxonil or both, Day 14-18
[9] = 250 ppm natamycin, 100 ppm fludioxonil or both, Day 19-22
[10] = 250 ppm natamycin, 100 ppm fludioxonil or both, Day 23-27
[11] = 500 ppm natamycin, 300 ppm fludioxonil or both, 22-27 days
[12] = 500 ppm natamycin, 300 ppm fludioxonil or both, 18 days
[13] = 500 ppm natamycin, 300 ppm fludioxonil or both, 19 days
[14] = 500 ppm natamycin, 300 ppm fludioxonil or both, 20 days
[15] = 500 ppm natamycin, 300 ppm fludioxonil or both, 21 days
[16] = 500 ppm natamycin, 300 ppm fludioxonil or both, Day 18-27

| Compound | Observed antifungal activity O (%) (Penicillium italicum; [1]) | Observed antifungal activity O (%) (Penicillium italicum; [2]) | Observed antifungal activity O (%) (Penicillium italicum; [3]) | Observed antifungal activity O (%) (Penicillium italicum; [4]) | Observed antifungal activity O (%) (Penicillium italicum; [5]) | Observed antifungal activity O (%) (Penicillium italicum; [6]) | Observed antifungal activity O (%) (Penicillium italicum; [7]) | Number of moulded oranges/total number of 8 oranges (Penicillium italicum; [8]) | Number of moulded oranges/total number of 8 oranges (Penicillium italicum; [9]) | Number of moulded oranges/total number of 8 oranges (Penicillium italicum; [10]) | Observed antifungal activity O (%) (Penicillium italicum; [11]) | Observed antifungal activity O (%) (Penicillium italicum; [12]) | Observed antifungal activity O (%) (Penicillium italicum; [13]) | Observed antifungal activity O (%) (Penicillium italicum; [14]) | Observed antifungal activity O (%) (Penicillium italicum; [15]) | Number of moulded oranges/total number of 8 oranges (Penicillium italicum; [16]) | other results |
| --- | --- | --- | --- | --- | --- | --- | --- | --- | --- | --- | --- | --- | --- | --- | --- | --- | --- |
| C[C@@H]1C/C=C/C=C/C=C/C=C/[C@H](O[C@@H]2O[C@H](C)[C@@H](O)[C@H](N)[C@@H]2O)C[C@@H]2O[C@](O)(C[C@@H](O)C[C@H]3O[C@@H]3/C=C/C(=O)O1)C[C@H](O)[C@H]2C(=O)O [Natamycin, natamycin] | 17 | 36 | 34 | 32 | 29 | 25 | 19 | 6/8 | 7/8 | 7/8 | 14 | 32 | 29 | 20 | 16 | 6 and 6/8 | Observed antifungal activity O (%) (Penicillium italicum; 500 ppm natamycin, 400 ppm fenpiclonil or both, 22-23 days): 14%; Observed antifungal activity O (%) (Penicillium italicum; 500 ppm natamycin, 400 ppm fenpiclonil or both, 12 days): 55%; Observed antifungal activity O (%) (Penicillium italicum; 500 ppm natamycin, 400 ppm fenpiclonil or both, 13 days): 52%; Observed antifungal activity O (%) (Penicillium italicum; 500 ppm natamycin, 400 ppm fenpiclonil or both, 14 days): 48%; Observed antifungal activity O (%) (Penicillium italicum; 500 ppm natamycin, 400 ppm fenpiclonil or both, 15 days): 45%; Observed antifungal activity O (%) (Penicillium italicum; 500 ppm natamycin, 400 ppm fenpiclonil or both, 16 days): 43%; Observed antifungal activity O (%) (Penicillium italicum; 500 ppm natamycin, 400 ppm fenpiclonil or both, 18 days): 32%; Observed antifungal activity O (%) (Penicillium italicum; 500 ppm natamycin, 400 ppm fenpiclonil or both, 19 days): 29%; Observed antifungal activity O (%) (Penicillium italicum; 500 ppm natamycin, 400 ppm fenpiclonil or both, 20 days): 20%; Observed antifungal activity O (%) (Penicillium italicum; 500 ppm natamycin, 400 ppm fenpiclonil or both, 21 days): 16%; Number of moulded oranges/total number of 8 oranges (Penicillium italicum; 500 ppm natamycin, 400 ppm fenpiclonil or both, Day 14-15): 5 and 5/8; Number of moulded oranges/total number of 8 oranges (Penicillium italicum; 500 ppm natamycin, 400 ppm fenpiclonil or both, Day 16): 5/8; Number of moulded oranges/total number of 8 oranges (Penicillium italicum; 500 ppm natamycin, 400 ppm fenpiclonil or both, Day 18): 6/8; Number of moulded oranges/total number of 8 oranges (Penicillium italicum; 500 ppm natamycin, 400 ppm fenpiclonil or both, Day 19-23): 6/8; Observed antifungal activity O (%) (Botrytis cinerea; 47 days): 15%; Observed antifungal activity O (%) (Botrytis cinerea; 48 days): 6%; Observed antifungal activity O (%) (Botrytis cinerea; 49 days): 4%; Observed antifungal activity O (%) (Botrytis cinerea; 50 days): 3% |
| N#Cc1c[nH]cc1-c1cccc2c1OC(F)(F)O2 [Fludioxonil, fludioxonil] | 0 | 9 | 2 | 0 | 0 | 0 | 0 | 8/8 | 8/8 | 8/8 | 17 | 17 | 17 | 17 | 17 | 7 and 7/8 | moulded oranges of the 8 oranges (Penicillium italicum; 250 ppm natamycin, 100 ppm fludioxonil or both, after 14 through 27 days of incubation): 8 |
